Test results published in patent US12448433B2, “Human ApoB100 epitopes, methods and uses for modulating inflammatory responses, and treating adverse cardiovascular events, disease and atherosclerosis” (LA JOLLA INSTITUTE FOR ALLERGY AND IMMUNOLOGY, priority 2015, dated 2025).
pIC50: −log10 of the molar value.

How the values were obtained:
DPB1*04:01 = molecular target: T1, DPB1*04:01 (Homo sapiens, UniProt P04440); assay: Peptide binding to HLA-DP allele, competition assay
T1 sequence (P04440 30-258): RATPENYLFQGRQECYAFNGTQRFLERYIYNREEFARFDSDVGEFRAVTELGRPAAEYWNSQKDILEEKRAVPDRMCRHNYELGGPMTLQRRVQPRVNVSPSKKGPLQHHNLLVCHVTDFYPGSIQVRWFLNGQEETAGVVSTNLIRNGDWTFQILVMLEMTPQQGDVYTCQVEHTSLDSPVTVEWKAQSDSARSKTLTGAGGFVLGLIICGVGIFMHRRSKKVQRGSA
T1 sequence (P20036 29-260 partner): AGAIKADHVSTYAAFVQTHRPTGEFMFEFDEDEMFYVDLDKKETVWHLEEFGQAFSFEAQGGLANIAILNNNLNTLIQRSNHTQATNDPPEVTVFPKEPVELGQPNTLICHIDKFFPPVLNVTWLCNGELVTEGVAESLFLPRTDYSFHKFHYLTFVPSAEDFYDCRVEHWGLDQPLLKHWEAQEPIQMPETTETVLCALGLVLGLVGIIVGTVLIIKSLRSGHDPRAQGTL
Text: (§1) Peptide binding to MHC-II requires anchor residues in certain positions and thus can be predicted using computer algorithms. Affinity can be measured experimentally using a competition assay (1). Both are excellent screening tools. However, affinity must be measured separately for each MHC-II allele. Humans express molecules encoded in four different MHC-II loci, denominated HLA-DRB1, DRB3/4/5, DP and DQ. Allelic variation is large, and most people are heterozygous at each locus, thus expressing up to 8 relevant MHC-II alleles. CD4 T cell responses strictly require that the antigenic peptide binds to the relevant MHC-II.
(§2) To identify peptides that could potentially be used in human patients, 30 peptides were screened for binding to 26 HLA alleles by competition assay.

DRB1*09:01 = DRB1*09:01 (Homo sapiens, UniProt P01903+P01911, A100R/A103E/D57H/D86V/F55Y/F60I/F76Y/I96F/K127E/L162R/M171V/P40D/Q125H/Q99R/R33Q/R42F/S133A/S66N/T210M/V115G/W38K/Y107V/Y59G/Y89S); assay: Peptide binding to HLA-DR allele, competition assay
Text: as §1, §2

DRB4*01:01 = DRB4*01:01 (Homo sapiens, UniProt P01903+P13762, G164S); assay: as above
Text: as §1, §2

DRB1*04:01 = DRB1*04:01 (Homo sapiens, UniProt P01903+P01911, A100K/A169T/F76Y/I96L/K127E/L162R/M171V/N62H/P40V/Q125Y/R42H/S133A/S149N/S66Y/V115G/V209L/W38E); assay: as above
Text: as §1, §2

DQB1*06:02 = assay: Peptide binding to HLA-DQ allele, competition assay; parameters: species or system human
Text: as §1, §2

DQB1*05:01 = assay: as above; parameters: species or system human
Text: as §1, §2

DPB1*05:01 = assay: Peptide binding to HLA-DP allele, competition assay; parameters: species or system human
Text: as §1, §2

DPB1*03:01 = assay: as above; parameters: species or system human
Text: as §1, §2

DPB1*14:01 = assay: as above; parameters: species or system human
Text: as §1, §2

DPB1*04:02 = assay: as above; parameters: species or system human
Text: as §1, §2

DPB1*02:01 = assay: as above; parameters: species or system human
Text: as §1, §2

DRB3*02:02 = DRB3*02:02 (Homo sapiens, UniProt P01903+P79483, A212P/D57E/F66Y/L67A/R103Q/R218S/R40L/S89Y/T80R/V86D/Y55F/Y59H); assay: Peptide binding to HLA-DR allele, competition assay
Text: as §1, §2

HLA-DRB1*01:01 = HLA-DRB1*01:01 (Homo sapiens, UniProt P01903+P01911, A100R/D57E/F55L/F60I/F76Y/I96L/L162R/M171V/P40L/Q125E/R42F/V115G/Y59C); assay: as above
Text: as §1, §2

DRB5*01:01 = DRB5*01:01 (Homo sapiens, UniProt P01903+Q30154); assay: as above
Text: as §1, §2

atherosclerotic plaque = assay: Peptide immunization in atherosclerosis model (ApoE−/− mice on western diet); format: in vivo, mouse; details: immunization in CFA and 4×IFA

| pIC50 (DPB1*04:01) | pIC50 (DRB1*09:01) | pIC50 (DRB4*01:01) | pIC50 (DRB1*04:01) | pIC50 (DQB1*06:02) | pIC50 (DQB1*05:01) | pIC50 (DPB1*05:01) | pIC50 (DPB1*03:01) | pIC50 (DPB1*14:01) | pIC50 (DPB1*04:02) | pIC50 (DPB1*02:01) | pIC50 (DRB3*02:02) | pIC50 (HLA-DRB1*01:01) | pIC50 (DRB5*01:01) | Compound | atherosclerotic plaque in the aortic root by serial sections (atherosclerotic plaque) | atherosclerotic plaque in the whole aorta by en face staining (atherosclerotic plaque) |
| --- | --- | --- | --- | --- | --- | --- | --- | --- | --- | --- | --- | --- | --- | --- | --- | --- |
| 6.43 | 7.13 | 7.92 | 8.15 | 7.89 | 7.28 | 8.39 | 7.59 | 6.99 | 7.64 | 5.78 |  |  |  | CSCC[C@H](NC(=O)[C@H](CC(C)C)NC(=O)[C@H](Cc1ccc(O)cc1)NC(=O)[C@H](C)NC(=O)[C@H](C)NC(=O)[C@H](CC(C)C)NC(=O)[C@H](CCCNC(=N)N)NC(=O)[C@H](CCCCN)NC(=O)[C@@H](N)CC(=O)O)C(=O)N[C@@H](CC(C)C)C(=O)N[C@@H](CCSC)C(=O)N[C@@H](CCCNC(=N)N)C(=O)N[C@@H](CO)C(=O)N1CCC[C@H]1C(=O)N[C@@H](CO)C(=O)O [Peptide 3563.0004] |  |  |
| 7.05 |  |  |  | 6.21 |  |  |  | 5.73 |  | 6.89 | 6.96 |  |  | CC[C@H](C)[C@H](NC(=O)[C@H](CC(C)C)NC(=O)[C@H](CCCCN)NC(=O)[C@H](CO)NC(=O)CNC(=O)[C@@H](N)C(C)C)C(=O)N[C@H](C(=O)N[C@@H](C)C(=O)N[C@@H](CCSC)C(=O)N[C@@H](CO)C(=O)N[C@@H](CO)C(=O)N[C@@H](Cc1c[nH]c2ccccc12)C(=O)N[C@@H](CC(C)C)C(=O)N[C@@H](CCC(N)=O)C(=O)N[C@@H](CCCCN)C(=O)O)C(C)C [Peptide 3563.0008] |  |  |
|  |  |  |  |  | 5.25 | 7.03 | 8.10 | 6.10 |  |  |  |  |  | CSCC[C@H](NC(=O)[C@@H](NC(=O)[C@H](Cc1ccccc1)NC(=O)[C@@H]1CCCN1C(=O)[C@H](C)NC(=O)[C@H](CCSC)NC(=O)[C@@H](NC(=O)[C@H](CO)NC(=O)[C@H](CCCNC(=N)N)NC(=O)[C@H](Cc1ccccc1)NC(=O)[C@@H](NC(=O)[C@H](CC(N)=O)NC(=O)[C@H](CO)NC(=O)[C@H](Cc1ccccc1)NC(=O)[C@@H](N)Cc1c[nH]cn1)C(C)C)C(C)C)[C@@H](C)O)C(=O)O [Peptide 3563.0010] |  |  |
| 8.15 |  |  |  | 4.87 | 8.43 | 6.09 |  | 4.91 | 6.83 | 7.24 |  |  |  | CC[C@H](C)[C@H](NC(=O)[C@H](CC(C)C)NC(=O)[C@H](CC(N)=O)NC(=O)[C@@H](NC(=O)[C@@H](NC(=O)[C@H](Cc1ccccc1)NC(=O)[C@H](Cc1c[nH]cn1)NC(=O)[C@H](CCCCN)NC(=O)[C@@H](NC(=O)[C@@H](N)Cc1c[nH]cn1)C(C)C)C(C)C)[C@@H](C)CC)C(=O)NCC(=O)N[C@@H](CC(=O)O)C(=O)N[C@@H](Cc1ccccc1)C(=O)N[C@@H](CCC(=O)O)C(=O)N[C@H](C(=O)O)C(C)C [Peptide 3563.0014] |  |  |
| 5.21 |  | 7.92 |  | 5.71 |  |  |  | 5.02 | 5.69 | 4.79 |  |  |  | CC[C@H](C)[C@H](NC(=O)[C@@H](NC(=O)[C@@H](N)CC(C)C)[C@@H](C)CC)C(=O)N[C@@H](CC(N)=O)C(=O)N[C@@H](Cc1c[nH]c2ccccc12)C(=O)N[C@@H](CC(C)C)C(=O)N[C@@H](CCC(N)=O)C(=O)N[C@@H](CCC(=O)O)C(=O)N[C@@H](C)C(=O)N[C@@H](CC(C)C)C(=O)N[C@@H](CO)C(=O)N[C@@H](CO)C(=O)N[C@@H](C)C(=O)N[C@@H](CO)C(=O)N[C@@H](CC(C)C)C(=O)O [Peptide 3563.0015] |  |  |
| 6.72 |  | 7.03 | 7.26 |  |  | 4.40 |  |  | 6.23 | 7.07 |  | 7.34 |  | CC(C)C[C@H](NC(=O)[C@H](CCC(N)=O)NC(=O)[C@H](C)NC(=O)[C@H](CC(N)=O)NC(=O)[C@H](C)NC(=O)[C@H](CCC(N)=O)NC(=O)[C@H](Cc1ccccc1)NC(=O)[C@H](CC(=O)O)NC(=O)[C@H](Cc1ccccc1)NC(=O)[C@H](CC(N)=O)NC(=O)[C@H](CC(C)C)NC(=O)[C@@H](NC(=O)[C@H](CCC(=O)O)NC(=O)[C@@H](N)CC(C)C)C(C)C)C(=O)N[C@@H](CO)C(=O)O [Peptide 3563.0017] |  |  |
|  |  |  |  | 6.31 |  | 6.37 |  | 5.19 |  | 6.34 |  |  | 7.24 | CC[C@H](C)[C@H](NC(=O)[C@H](CCCCN)NC(=O)CN)C(=O)N[C@@H](CC(=O)O)C(=O)N[C@@H](Cc1ccccc1)C(=O)N[C@@H](CC(C)C)C(=O)N[C@@H](CC(N)=O)C(=O)N[C@@H](CC(N)=O)C(=O)N[C@@H](Cc1ccc(O)cc1)C(=O)N[C@@H](C)C(=O)N[C@@H](CC(C)C)C(=O)N[C@@H](Cc1ccccc1)C(=O)N[C@@H](CC(C)C)C(=O)N[C@@H](CO)C(=O)N1CCC[C@H]1C(=O)O [Peptide 3563.0019] |  |  |
|  |  | 8.48 |  | 5.21 |  | 5.34 |  | 5.68 |  | 7.21 | 8.48 |  |  | CC[C@H](C)[C@H](NC(=O)[C@H](CC(N)=O)NC(=O)[C@H](CCCCN)NC(=O)[C@H](CC(C)C)NC(=O)[C@H](Cc1ccccc1)NC(=O)[C@H](CCCNC(=N)N)NC(=O)[C@H](CC(C)C)NC(=O)[C@H](Cc1c[nH]cn1)NC(=O)CNC(=O)[C@@H](N)CCC(=O)O)C(=O)N[C@H](C(=O)N[C@@H](CC(C)C)C(=O)N1CCC[C@H]1C(=O)N[C@H](C(=O)N[C@@H](Cc1ccc(O)cc1)C(=O)O)C(C)C)[C@@H](C)CC [Peptide 3563.0021] |  |  |
| 7.11 |  |  |  | 5.84 | 6.91 |  |  | 5.75 | 6.81 | 6.18 |  |  | 7.85 | CC[C@H](C)[C@H](NC(=O)[C@H](CC(C)C)NC(=O)[C@H](CO)NC(=O)[C@@H](NC(=O)[C@@H](NC(=O)[C@@H](N)CCCCN)[C@@H](C)CC)C(C)C)C(=O)N[C@@H](CCCCN)C(=O)N[C@@H](CC(N)=O)C(=O)N[C@@H](CC(C)C)C(=O)N[C@@H](CC(C)C)C(=O)N[C@H](C(=O)N[C@@H](C)C(=O)N[C@@H](CC(C)C)C(=O)N[C@@H](CCCCN)C(=O)N[C@@H](CC(=O)O)C(=O)O)C(C)C [Peptide 3563.0028] |  |  |
| 6.67 |  |  |  | 5.23 | 5.32 | 7.49 |  |  | 8.07 | 7.02 |  |  |  | CC[C@H](C)[C@H](NC(=O)[C@H](CC(C)C)NC(=O)[C@@H](N)Cc1ccccc1)C(=O)N[C@@H](Cc1ccc(O)cc1)C(=O)N[C@H](C(=O)N[C@H](C(=O)N[C@@H](CCC(=O)O)C(=O)N[C@@H](CC(C)C)C(=O)N[C@@H](CC(C)C)C(=O)N[C@@H](CCCCN)C(=O)N[C@@H](CCCCN)C(=O)N[C@@H](CC(C)C)C(=O)N[C@@H](CCC(N)=O)C(=O)N[C@@H](CO)C(=O)N[C@H](C(=O)O)[C@@H](C)O)[C@@H](C)O)[C@@H](C)CC [Peptide 3563.0030] |  |  |
|  |  |  |  |  |  |  |  |  |  |  |  |  |  | ovalbumin | not | not |
